Assay results taken from patent US11045438B2, “Cysteine composition and injection” (Exela Sterile Medicines LLC, priority 2019, dated 2021).
In brackets after ≈: the same amount, converted by molar mass. Where two headings read alike, the source gives them in different places.

Columns and labels:
[1] = physchem; settings: 22 °C
Text: Cystine, a sulfur-sulfur dimer of cysteine, can form in the presence of oxygen (air) in cysteine solutions. Cystine, especially the free base, is several orders of magnitude less soluble in aqueous solutions than cysteine, and the solubility of cystine decreases as the pH increases.

[2] = cited from earlier work
[3] = aqueous with cosolvent or surfactant or cyclodextrin

| solubility ([1]; water) [µg/mL] | solubility [1, 3] [µg/mL] | Compound | solubility ([2]; pH 1.0) | solubility ([2]; pH 1.4) |
| --- | --- | --- | --- | --- |
| 18700 (≈ 155000 µM) | – | N[C@@H](CS)C(=O)O [Cysteine free base, Cysteine] | – | – |
| 1040 | 9930 | Cl.Cl.N[C@@H](CSSC[C@H](N)C(=O)O)C(=O)O [Cystine Dihydrochloride] | – | – |
| 140 (≈ 583 µM) | 590 (≈ 2460 µM) | N[C@@H](CSSC[C@H](N)C(=O)O)C(=O)O [Cystine free Base, Cystine] | approximately 4 mg/mL | approximately 1 mg/ml |
